Where a SMILES comes first, the peptide text is derived from it. Bridges are numbered along the chain shown (N, C = ends).
How the values were obtained:
[1] = in vivo; conditions: male, SD, rat, iv, 10 nmol/kg
Protocol: The experiment was carried out using rats into which polyethylene tube (PE-50 manufactured by Clay Adams) was previously inserted into thigh artery under an anesthetized condition with Nembutal. As to a test system, male SD strain rats (Nippon Charles River) of 7 weeks age were used where one group comprised 3 rats. Native CNP-22 or chimeric CNP in a dose of 10 nmol/kg was administered into tail vein of the rat and the blood before the administration and until 60 minutes after the administration was collected by a polyethylene tube inserted into the thigh artery. To the collected blood were added EDTA (manufactured by Dojin Laboratories) and aprotinin (manufactured by Bayer) as a stabilizer and an anti-coagulant, respectively and the plasma was separated therefrom by centrifugal separation. CNP immunoreactivity concentration in plasma was measured by a competitive radioimmunoassay (RIA). At that time, a rabbit polyclonal antibody (#2) which specifically recognizes the ring partial structure of the native CNP-22 was used as an antibody and, as a labeled compound, ^125I-[Tyr^0] CNP was used.

[2] = Motilin immunoreactivity concentration in plasma, half-life after intravenous administration (Example 6); type: in vivo, rat; conditions: for half-life: SD, rat, plasma, 10 nmol/kg, male rats, N = 3, read-out: T½ Mean Value; for disappearance half-time extending action in vivo compared with native motilin: rats
Protocol: The experiment was carried out using rats into which polyethylene tube (PE-50 manufactured by Clay Adams) was previously inserted into thigh artery under an anesthetized condition with Nembutal. As to a test system, male SD strain rats (Nippon Charles River) of 7 weeks age were used where one group comprised 3 rats. Human type motilin or a derivative thereof in a dose of 10 nmol/kg was administered into tail vein of the rat and the blood before the administration and until 60 minutes after the administration was collected by a polyethylene tube inserted into the thigh artery. To the collected blood were added EDTA (manufactured by Dojin Laboratories) and aprotinin (manufactured by Bayer) as a stabilizer and an anti-coagulant, respectively and the plasma was separated therefrom by centrifugal separation.

[3] = Motilin immunoreactivity concentration in plasma, half-life after intravenous administration (Example 8); conditions: SD, rat, in vivo, 10 nmol/kg
Summary of the method: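 Male SD rats (7 weeks, n=3/group) received human motilin or derivative at 10 nmol/kg i.v. via tail vein; arterial blood was sampled up to 60 min, with EDTA and aprotinin added. Plasma motilin immunoreactivity was measured by competitive RIA using a rabbit polyclonal antibody against native motilin residues 1–12 and ^125I-[Tyr^7] human motilin tracer.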

SMILES: CC[C@H](C)[C@@H]1NC(=O)[C@H](CCCNC(=N)N)NC(=O)[C@H](CC(=O)O)NC(=O)[C@H](CC(C)C)NC(=O)[C@H](CCCCN)NC(=O)[C@H](CC(C)C)NC(=O)CNC(=O)[C@H](Cc2ccccc2)NC(=O)[C@@H](N)CSSC[C@@H](C(=O)N[C@H](C(=O)N[C@@H](CCC(N)=O)C(=O)N[C@@H](CCC(N)=O)C(=O)N[C@@H](CCCNC(=N)N)C(=O)N[C@@H](CCCCN)C(=O)N[C@@H](CCC(=O)O)C(=O)N[C@@H](CO)C(=O)N[C@@H](CCCCN)C(=O)N[C@@H](CCCCN)C(=O)N2CCC[C@H]2C(=O)N2CCC[C@H]2C(=O)N[C@@H](C)C(=O)N[C@@H](CCCCN)C(=O)N[C@@H](CC(C)C)C(=O)N[C@@H](CCC(N)=O)C(=O)N2CCC[C@H]2C(=O)N[C@@H](CCCNC(=N)N)C(=O)O)C(C)C)NC(=O)CNC(=O)[C@H](CC(C)C)NC(=O)CNC(=O)[C@H](CO)NC(=O)[C@H](CCSC)NC(=O)[C@H](CO)NC(=O)CNC1=O [Chimeric CNP (C)] (H-CFGLKLDRIGSMSGLGCVQQRKESKKPPAKLQPR-OH; disulfide 1-17; N-terminus and C-terminus assumed)
- half-life [1]: 15 min

SMILES: CC[C@H](C)[C@@H]1NC(=O)[C@H](CCCNC(=N)N)NC(=O)[C@H](CC(=O)O)NC(=O)[C@H](CC(C)C)NC(=O)[C@H](CCCCN)NC(=O)[C@H](CC(C)C)NC(=O)CNC(=O)[C@H](Cc2ccccc2)NC(=O)[C@@H](NC(=O)[C@H](CCCNC(=N)N)NC(=O)[C@@H]2CCCN2C(=O)[C@H](CCC(N)=O)NC(=O)[C@H](CC(C)C)NC(=O)[C@H](CCCCN)NC(=O)[C@H](C)NC(=O)[C@@H]2CCCN2C(=O)[C@@H]2CCCN2C(=O)[C@H](CCCCN)NC(=O)[C@H](CCCCN)NC(=O)[C@H](CO)NC(=O)[C@H](CCC(=O)O)NC(=O)[C@H](CCCCN)NC(=O)[C@H](CCCNC(=N)N)NC(=O)[C@H](CCC(N)=O)NC(=O)[C@H](CCC(N)=O)NC(=O)[C@@H](N)C(C)C)CSSC[C@@H](C(=O)O)NC(=O)CNC(=O)[C@H](CC(C)C)NC(=O)CNC(=O)[C@H](CO)NC(=O)[C@H](CCSC)NC(=O)[C@H](CO)NC(=O)CNC1=O [Chimeric CNP (G)] (H-VQQRKESKKPPAKLQPRCFGLKLDRIGSMSGLGC-OH; disulfide 18-34; N-terminus and C-terminus assumed)
- half-life [1]: 17.8 min

SMILES: CC[C@H](C)[C@H](NC(=O)[C@@H]1CCCN1C(=O)[C@@H](NC(=O)[C@@H](N)Cc1ccccc1)C(C)C)C(=O)N[C@@H](Cc1ccccc1)C(=O)N[C@H](C(=O)N[C@@H](Cc1ccc(O)cc1)C(=O)NCC(=O)N[C@@H](CCC(=O)O)C(=O)N[C@@H](CC(C)C)C(=O)N[C@@H](CCC(N)=O)C(=O)N[C@@H](CCCNC(=N)N)C(=O)N[C@H](C(=O)N[C@@H](CCC(N)=O)C(=O)N[C@@H](CCC(N)=O)C(=O)N[C@@H](CCCNC(=N)N)C(=O)N[C@@H](CCCCN)C(=O)N[C@@H](CCC(=O)O)C(=O)N[C@@H](CO)C(=O)N[C@@H](CCCCN)C(=O)N[C@@H](CCCCN)C(=O)N1CCC[C@H]1C(=O)N1CCC[C@H]1C(=O)N[C@@H](C)C(=O)N[C@@H](CCCCN)C(=O)N[C@@H](CC(C)C)C(=O)N[C@@H](CCC(N)=O)C(=O)N1CCC[C@H]1C(=O)N[C@@H](CCCNC(=N)N)C(=O)O)C(C)C)[C@@H](C)O [Chimeric motilin (D)] (H-FVPIFTYGELQRVQQRKESKKPPAKLQPR-OH; N-terminus and C-terminus assumed)
- half-life [2]: 8.9 min
- half-life ([3]; male, iv): 8.9 min

SMILES: CC[C@H](C)[C@H](NC(=O)[C@@H]1CCCN1C(=O)[C@@H](NC(=O)[C@@H](N)Cc1ccccc1)C(C)C)C(=O)N[C@@H](Cc1ccccc1)C(=O)N[C@H](C(=O)N[C@@H](Cc1ccc(O)cc1)C(=O)NCC(=O)N[C@@H](CCC(=O)O)C(=O)N[C@@H](CC(C)C)C(=O)N[C@@H](CCC(N)=O)C(=O)N[C@@H](CCCNC(=N)N)C(=O)N[C@H](C(=O)N[C@@H](CCC(N)=O)C(=O)N[C@@H](CCC(N)=O)C(=O)N[C@@H](CCCNC(=N)N)C(=O)N[C@@H](CCCCN)C(=O)N[C@@H](CCC(=O)O)C(=O)N[C@@H](CO)C(=O)N[C@@H](CCCCN)C(=O)N[C@@H](CCCCN)C(=O)N1CCC[C@H]1C(=O)N1CCC[C@H]1C(=O)N[C@@H](C)C(=O)N[C@@H](CCCCN)C(=O)O)C(C)C)[C@@H](C)O [Chimeric motilin (I)] (H-FVPIFTYGELQRVQQRKESKKPPAK-OH; N-terminus and C-terminus assumed)
- half-life [2]: 5.76 min

SMILES: CC[C@H](C)[C@H](NC(=O)[C@@H]1CCCN1C(=O)[C@@H](NC(=O)[C@@H](N)Cc1ccccc1)C(C)C)C(=O)N[C@@H](Cc1ccccc1)C(=O)N[C@H](C(=O)N[C@@H](Cc1ccc(O)cc1)C(=O)NCC(=O)N[C@@H](CCC(=O)O)C(=O)N[C@@H](CC(C)C)C(=O)N[C@@H](CCC(N)=O)C(=O)N[C@@H](CCCNC(=N)N)C(=O)N[C@H](C(=O)N[C@@H](CCC(N)=O)C(=O)N[C@@H](CCC(N)=O)C(=O)N[C@@H](CCCNC(=N)N)C(=O)N[C@@H](CCCCN)C(=O)N[C@@H](CCC(=O)O)C(=O)N[C@@H](CO)C(=O)N[C@@H](CCCCN)C(=O)N[C@@H](CCCCN)C(=O)N1CCC[C@H]1C(=O)N1CCC[C@H]1C(=O)O)C(C)C)[C@@H](C)O [Chimeric motilin (J)] (H-FVPIFTYGELQRVQQRKESKKPP-OH; N-terminus and C-terminus assumed)
- half-life [2]: 6.34 min

SMILES: CC[C@H](C)[C@H](NC(=O)[C@@H]1CCCN1C(=O)[C@@H](NC(=O)[C@@H](N)Cc1ccccc1)C(C)C)C(=O)N[C@@H](Cc1ccccc1)C(=O)N[C@H](C(=O)N[C@@H](Cc1ccc(O)cc1)C(=O)NCC(=O)N[C@@H](CCC(=O)O)C(=O)N[C@@H](CC(C)C)C(=O)N[C@@H](CCC(N)=O)C(=O)N[C@@H](CCCNC(=N)N)C(=O)N[C@H](C(=O)N[C@@H](CCC(N)=O)C(=O)N[C@@H](CCC(N)=O)C(=O)N[C@@H](CCCNC(=N)N)C(=O)N[C@@H](CCCCN)C(=O)N[C@@H](CCC(=O)O)C(=O)N[C@@H](CO)C(=O)N[C@@H](CCCCN)C(=O)N[C@@H](CCCCN)C(=O)O)C(C)C)[C@@H](C)O [Chimeric motilin (K)] (H-FVPIFTYGELQRVQQRKESKK-OH; N-terminus and C-terminus assumed)
- half-life [2]: 6.14 min

SMILES: CC[C@H](C)[C@H](NC(=O)[C@@H]1CCCN1C(=O)[C@@H](NC(=O)[C@@H](N)Cc1ccccc1)C(C)C)C(=O)N[C@@H](Cc1ccccc1)C(=O)N[C@H](C(=O)N[C@@H](Cc1ccc(O)cc1)C(=O)NCC(=O)N[C@@H](CCC(=O)O)C(=O)N[C@@H](CC(C)C)C(=O)N[C@@H](CCC(N)=O)C(=O)N[C@@H](CCCNC(=N)N)C(=O)N[C@H](C(=O)N[C@@H](CCC(N)=O)C(=O)N[C@@H](CCC(N)=O)C(=O)N[C@@H](CCCNC(=N)N)C(=O)N[C@@H](CCCCN)C(=O)N[C@@H](CCC(=O)O)C(=O)N[C@@H](CO)C(=O)O)C(C)C)[C@@H](C)O [Chimeric motilin (L), FVPIFTYGELQRVQQRKES] (H-FVPIFTYGELQRVQQRKES-OH; N-terminus and C-terminus assumed)
- half-life [2]: 4.89 min
- disappearance half-time extending action in vivo compared with native motilin [2]: unable to be confirmed

SMILES: CC[C@H](C)[C@H](NC(=O)[C@@H]1CCCN1C(=O)[C@@H](NC(=O)[C@@H](N)Cc1ccccc1)C(C)C)C(=O)N[C@@H](Cc1ccccc1)C(=O)N[C@H](C(=O)N[C@@H](Cc1ccc(O)cc1)C(=O)NCC(=O)N[C@@H](CCC(=O)O)C(=O)N[C@@H](CC(C)C)C(=O)N[C@@H](CCC(N)=O)C(=O)N[C@@H](CCCNC(=N)N)C(=O)N[C@H](C(=O)N[C@@H](CCC(N)=O)C(=O)N[C@@H](CCC(N)=O)C(=O)N[C@@H](CCCNC(=N)N)C(=O)N[C@@H](CCCCN)C(=O)O)C(C)C)[C@@H](C)O [Chimeric motilin (M), FVPIFTYGELQRVQQRK] (H-FVPIFTYGELQRVQQRK-OH; N-terminus and C-terminus assumed)
- half-life [2]: 2.39 min
- disappearance half-time extending action in vivo compared with native motilin [2]: unable to be confirmed

SMILES: CC[C@H](C)[C@H](NC(=O)[C@@H]1CCCN1C(=O)[C@@H](NC(=O)[C@@H](N)Cc1ccccc1)C(C)C)C(=O)N[C@@H](Cc1ccccc1)C(=O)N[C@H](C(=O)N[C@@H](Cc1ccc(O)cc1)C(=O)NCC(=O)N[C@@H](CCC(=O)O)C(=O)N[C@@H](CC(C)C)C(=O)N[C@@H](CCC(N)=O)C(=O)N[C@@H](CCCNC(=N)N)C(=O)N[C@@H](CCSC)C(=O)N[C@@H](CCC(N)=O)C(=O)N[C@@H](CCC(=O)O)C(=O)N[C@@H](CCCCN)C(=O)N[C@@H](CCC(=O)O)C(=O)N[C@@H](CCCNC(=N)N)C(=O)N[C@@H](CC(N)=O)C(=O)N[C@@H](CCCCN)C(=O)NCC(=O)N[C@@H](CCC(N)=O)C(=O)O)[C@@H](C)O [Native Motilin, reference compound]
- half-life [2]: 3.26 min
- half-life ([3]; intravenous, male rats, N = 3, read-out: T½ Mean Value): 3.26 min

From patent US8551937B2, “Peptide having an extending action for half-life of object peptide in plasma” (priority 2008, dated 2013)
